Data: ChEMBL document CHEMBL1124752, “Cyclobut-A and cyclobut-G: broad-spectrum antiviral agents with potential utility for the therapy of AIDS” (J Med Chem, 1990)
Converted amounts (≈) assume the structure as drawn.

Columns and labels:
[1] = system: Human alphaherpesvirus 3; assay: In vitro antiviral activity tested against herpesvirus, VZV, Ellen strain by plaque reduction assay in human foreskin fibroblasts; format: functional
[2] = system: Human immunodeficiency virus 1; assay: Tested for the determination of percentage protection at 1 uM against HIV-1 in ATH8 cells; format: functional, ATH-8
[3] = system: Murid betaherpesvirus 1; assay: Tested for the effective dose required to inhibit systemic MCMV in infected mice; format: functional
[4] = system: Human alphaherpesvirus 2; assay: Tested for mean day to death of nonsurvivors against HSV-2 encephalitis in mice at 31.2 mg/kg/day; format: functional
[5] = system: Human betaherpesvirus 5; assay: In vitro antiviral activity tested against herpesvirus, HCMV, EC strain by plaque reduction assay in human foreskin fibroblasts; format: functional
[6] = system: Murid betaherpesvirus 1; assay: Number of survivors per number of systemic MCMV infected mice treated with 33.4 mg/kg/day; 14/15; format: functional
[7] = system: Human betaherpesvirus 5; assay: In vitro antiviral activity tested against herpesvirus, HCMV, AD169 strain by plaque reduction assay in human foreskin fibroblasts; format: functional
[8] = system: Human alphaherpesvirus 2; assay: Number of survivors per number of HSV-2 infected mice treated with 7.8 mg/kg/day; 5/10; format: functional
[9] = system: Human alphaherpesvirus 2; assay: In vitro antiviral activity tested against herpesvirus, HSV-2, JEN strain by plaque reduction assay in human foreskin fibroblasts; format: functional
[10] = system: Human betaherpesvirus 5; assay: In vitro antiviral activity tested against herpesvirus, HCMV, Davis strain by plaque reduction assay in human foreskin fibroblasts; format: functional
[11] = system: Human alphaherpesvirus 2; assay: Tested for mean day to death of nonsurvivors against HSV-2 encephalitis in mice at 7.8 mg/kg/day; format: functional
[12] = system: Human alphaherpesvirus 2; assay: Number of survivors per number of HSV-2 infected mice treated with 125 mg/kg/day; 10/10; format: functional
[13] = system: Murid betaherpesvirus 1; assay: Number of survivors per number of systemic MCMV infected mice treated with 100 mg/kg/day; 15/15; format: functional
[14] = system: Human alphaherpesvirus 2; assay: Number of survivors per number of HSV-2 infected mice treated with 31.2 mg/kg/day; 9/10; format: functional
[15] = system: Human immunodeficiency virus 1; assay: Tested for the determination of percentage protection at 100 uM against HIV-1 in ATH8 cells; format: functional, ATH-8
[16] = system: Human alphaherpesvirus 1; assay: Number of survivors per number of HSV-1 infected mice treated with 4.7 mg/kg/day; 6/10; format: functional
[17] = system: Murid betaherpesvirus 1; assay: Tested for mean day to death of nonsurvivors against systemic MCMV infection in mice at 11.2 mg/kg/day; format: functional
[18] = system: Human alphaherpesvirus 1; assay: Tested for the effective dose required to inhibit HSV-1 in infected mice; format: functional
[19] = system: Human alphaherpesvirus 2; assay: In vitro activity tested against herpesvirus, HSV-2, MS strain by plaque reduction assay in human foreskin fibroblasts; format: functional
[20] = system: Human immunodeficiency virus 1; assay: Tested for the determination of percentage toxicity at 50 uM against HIV-1 in ATH8 cells; format: organism-based; conditions: human immunodeficiency virus 1, ath-8, 50 µM
[21] = system: Human alphaherpesvirus 1; assay: Number of survivors per number of HSV-1 infected mice treated with 18.7 mg/kg/day; 10/10; format: functional
[22] = system: Murid betaherpesvirus 1; assay: Number of survivors per number of systemic MCMV infected mice treated with 11.2 mg/kg/day; 14/15; format: functional
[23] = system: Human alphaherpesvirus 2; assay: In vitro antiviral activity tested against herpesvirus, HSV-2, HEET strain by plaque reduction assay in human foreskin fibroblasts; format: functional
[24] = system: Murid betaherpesvirus 1; assay: In vitro antiviral activity tested against herpesvirus, MCMV, Smith strain by plaque reduction assay in mouse embryo fibroblasts; format: functional
[25] = system: Murid betaherpesvirus 1; assay: Number of survivors per number of systemic MCMV infected mice treated with 3.8 mg/kg/day; 4/15; format: functional
[26] = system: Human betaherpesvirus 5; assay: In vitro antiviral activity tested against herpesvirus, HCMV, CH strain by plaque reduction assay in human foreskin fibroblasts; format: functional
[27] = system: Human immunodeficiency virus 1; assay: Tested for the determination of percentage toxicity at 10 uM against HIV-1 in ATH8 cells; format: organism-based; conditions: human immunodeficiency virus 1, ath-8, 10 µM
[28] = system: Human alphaherpesvirus 3; assay: In vitro antiviral activity tested against herpesvirus, VZV, OKA strain by plaque reduction assay in human foreskin fibroblasts; format: functional
[29] = system: Human immunodeficiency virus 1; assay: Tested for the determination of percentage protection at 50 uM against HIV-1 in ATH8 cells; format: functional, ATH-8
[30] = system: Human alphaherpesvirus 1; assay: Number of survivors per number of HSV-1 infected mice treated with 75 mg/kg/day; 10/10; format: functional
[31] = system: Human alphaherpesvirus 1; assay: Tested for mean day to death of nonsurvivors against HSV-1 infection in mice at 4.7 mg/kg/day; format: functional
[32] = system: Murid betaherpesvirus 1; assay: Tested for mean day to death of nonsurvivors against systemic MCMV infection in mice at 33.4 mg/kg/day; format: functional
[33] = system: Human immunodeficiency virus 1; assay: Tested for the determination of percentage protection at 10 uM against HIV-1 in ATH8 cells; format: functional, ATH-8
[34] = system: Murid betaherpesvirus 1; assay: Tested for mean day to death of nonsurvivors against systemic MCMV infection in mice at 3.8 mg/kg/day; format: functional
[35] = system: Human alphaherpesvirus 2; assay: In vitro antiviral activity tested against herpesvirus, HSV-2, X-79 strain by plaque reduction assay in human foreskin fibroblasts; format: functional
[36] = system: Human immunodeficiency virus 1; assay: Tested for the determination of percentage toxicity at 100 uM against HIV-1 in ATH8 cells; format: organism-based; conditions: human immunodeficiency virus 1, ath-8, 100 µM
[37] = system: Human alphaherpesvirus 1; assay: In vitro antiviral activity against herpesvirus, HSV-1, E-377 strain by plaque reduction assay in human foreskin fibroblasts; format: functional
[38] = species: Homo sapiens; assay: The drug concentration was determined to reduce proliferation of human foreskin fibroblasts to 50% of untreated controls in proliferation assay; format: functional; conditions: read-out: ID50 (the source's name)
[39] = system: Human immunodeficiency virus 1; assay: Tested for the determination of percentage toxicity at 1 uM against HIV-1 in ATH8 cells; format: organism-based; conditions: human immunodeficiency virus 1, ath-8, 1 µM
[40] = system: Human alphaherpesvirus 2; assay: Tested for the effective dose required to inhibit HSV-2 encephalitis in infected mice; format: functional
[41] = system: Human betaherpesvirus 5; assay: In vitro antiviral activity tested against herpesvirus, HCMV, LA strain by plaque reduction assay in human foreskin fibroblasts; format: functional
[42] = read-out: ED50 (the source's name)
[43] = read-out: ID50 (the source's name)

Nc1ncnc2c1ncn2[C@@H]1C[C@H](CO)[C@H]1CO
EC50 [1, 42]: 2.1 µg/mL (≈ 8.42 µM)
IC50 [1, 43]: > 100 µg/mL
Protection [2]: 47%
ED50 [3]: 2.7 mg/kg/day
MDD [4]: 10
EC50 [5, 42]: 2.2 µg/mL (≈ 8.83 µM)
IC50 [5, 43]: > 100 µg/mL
Survivors / treated [6]: 14
EC50 [7, 42]: 3.7 µg/mL (≈ 14.8 µM)
IC50 [7, 43]: > 100 µg/mL
Survivors / treated [8]: 5
EC50 [9, 42]: 2.3 µg/mL (≈ 9.23 µM)
IC50 [9, 43]: > 100 µg/mL
EC50 [10, 42]: 0.9 µg/mL (≈ 3.61 µM)
IC50 [10, 43]: > 100 µg/mL
MDD [11]: 10.8
Survivors / treated [12]: 10
Survivors / treated [13]: 15
Survivors / treated [14]: 9
Protection [15]: 52%
Survivors / treated [16]: 6
MDD [17]: 6
ED50 [18]: < 4.7 mg/kg/day
EC50 [19, 42]: 1.6 µg/mL (≈ 6.42 µM)
IC50 [19, 43]: > 100 µg/mL
Cytotoxity [20]: 42%
Survivors / treated [21]: 10
Survivors / treated [22]: 14
EC50 [23, 42]: 2.2 µg/mL (≈ 8.83 µM)
IC50 [23, 43]: > 100 µg/mL
EC50 [24, 42]: 0.05 µg/mL (≈ 0.201 µM)
IC50 [24, 43]: > 100 µg/mL
Survivors / treated [25]: 4
EC50 [26, 42]: 0.9 µg/mL (≈ 3.61 µM)
IC50 [26, 43]: > 100 µg/mL
Cytotoxity [27]: 32%
EC50 [28, 42]: 2 µg/mL (≈ 8.02 µM)
IC50 [28, 43]: > 100 µg/mL
Protection [29]: 48%
Survivors / treated [30]: 10
MDD [31]: 7.5
MDD [32]: 5
Protection [33]: 63%
MDD [34]: 5.3
EC50 [35, 42]: 1.8 µg/mL (≈ 7.22 µM)
IC50 [35, 43]: > 100 µg/mL
Cytotoxity [36]: 44%
EC50 [37, 42]: 1 µg/mL (≈ 4.01 µM)
IC50 [37, 43]: > 100 µg/mL
IC50 [38]: 7.7 µg/mL (≈ 30.9 µM)
Cytotoxity [39]: 11%
ED50 [40]: 9.7 mg/kg/day
EC50 [41, 42]: 1 µg/mL (≈ 4.01 µM)
IC50 [41, 43]: > 100 µg/mL
